Measurements: patent EP4722213A1, “NITROGEN-CONTAINING FUNCTIONAL GROUP-SUBSTITUTED PYRIDAZINOPYRIDONE DERIVATIVE AND USE THEREOF” (Sichuan Huiyu Pharmaceutical Co., Ltd., priority 2023, dated 2024)

Biological target: T1, SOS1 (Homo sapiens, UniProt Q07889)
T1 sequence (Q07889 1-1333): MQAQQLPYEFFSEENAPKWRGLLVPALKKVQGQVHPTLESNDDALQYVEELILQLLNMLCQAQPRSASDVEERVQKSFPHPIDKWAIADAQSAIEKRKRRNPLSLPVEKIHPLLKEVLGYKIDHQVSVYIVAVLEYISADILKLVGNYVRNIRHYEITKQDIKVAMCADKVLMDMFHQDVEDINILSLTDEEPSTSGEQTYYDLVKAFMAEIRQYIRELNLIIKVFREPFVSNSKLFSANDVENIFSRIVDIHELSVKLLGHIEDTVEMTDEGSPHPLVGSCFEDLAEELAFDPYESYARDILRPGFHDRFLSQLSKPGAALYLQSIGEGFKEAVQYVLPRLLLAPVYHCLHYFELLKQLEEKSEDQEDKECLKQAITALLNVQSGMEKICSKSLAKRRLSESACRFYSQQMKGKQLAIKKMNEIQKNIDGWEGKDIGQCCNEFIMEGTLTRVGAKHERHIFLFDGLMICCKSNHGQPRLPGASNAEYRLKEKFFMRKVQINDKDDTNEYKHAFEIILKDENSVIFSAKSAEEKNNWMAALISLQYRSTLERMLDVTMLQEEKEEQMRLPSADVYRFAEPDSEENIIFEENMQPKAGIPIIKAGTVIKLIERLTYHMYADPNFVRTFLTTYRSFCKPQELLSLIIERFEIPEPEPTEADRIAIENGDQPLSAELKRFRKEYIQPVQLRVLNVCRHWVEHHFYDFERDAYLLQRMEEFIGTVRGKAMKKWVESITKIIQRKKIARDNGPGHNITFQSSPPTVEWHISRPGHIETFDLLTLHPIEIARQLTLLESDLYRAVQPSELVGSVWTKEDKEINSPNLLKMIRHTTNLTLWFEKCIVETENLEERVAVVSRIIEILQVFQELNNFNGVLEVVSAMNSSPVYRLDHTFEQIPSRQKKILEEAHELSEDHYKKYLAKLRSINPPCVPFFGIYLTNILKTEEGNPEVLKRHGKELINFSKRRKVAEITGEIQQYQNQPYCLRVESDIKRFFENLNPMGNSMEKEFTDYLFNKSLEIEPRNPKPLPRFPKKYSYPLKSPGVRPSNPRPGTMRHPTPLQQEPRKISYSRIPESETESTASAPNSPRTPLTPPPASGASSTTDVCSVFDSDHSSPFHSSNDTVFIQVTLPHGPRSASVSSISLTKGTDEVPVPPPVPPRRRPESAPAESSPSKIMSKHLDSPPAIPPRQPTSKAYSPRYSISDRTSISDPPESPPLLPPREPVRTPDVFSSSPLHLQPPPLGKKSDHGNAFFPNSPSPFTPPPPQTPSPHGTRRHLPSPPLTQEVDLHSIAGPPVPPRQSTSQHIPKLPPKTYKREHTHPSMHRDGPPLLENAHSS
Assay: biochemical

## Cc1cc(N)cc([C@@H](C)Nc2nnc(N3CCN(C)CC3)c3cc(=O)n(C4CC4)cc23)c1F [Example 141, (R)-4-((1-(5-amino-2-fluoro-3-methylphenyl)ethyl)amino)-6-cyclopropyl-1-(4-methylpiperazin-1-yl)pyrido[3,4-d]pyridazin-7(6H)-one]
  IC50: 7.8 nM

## C[C@@H](Nc1nnc(N2CCN(C3CC3)CC2)c2cc(=O)n(N3CC4CCCC4C3)cc12)c1cccc(C(F)F)c1F (stereo partly drawn) [Example 142, 4-(((R)-1-(3-(difluoromethyl)-2-fluorophenyl)ethyl)amino)-6-(hexahydrocyclopenta[c]pyrrol-2(1H)-yl)-1-(4-cyclopropylpiperazin-1-yl)-pyrido[3,4-d]pyridazin-7(6H)-one]
  IC50: 10.6 nM

## C[C@@H](Nc1nnc(N2CCN(C3CCC3)CC2)c2cc(=O)n(C3(C)CC3)cc12)c1cccc(C(F)(F)F)c1F [Example 173, (R)-4-((1-(2-fluoro-3-(trifluoromethyl)phenyl)ethyl)amino)-1-(4-cyclobutylpiperazin-1-yl)-6-(1-methylcyclopropyl) pyrido[3,4-d]pyridazin-7(6H)-one]
  IC50: 5.3 nM

## Cc1c(C#N)cccc1[C@@H](C)Nc1nnc(N2CC(F)(F)C2)c2cc(=O)n(C3CC3)cc12 [Example 41, (R)-3-(1-((6-cyclopropyl-1-(3,3-difluoroazetidin-1-yl)-7-oxo-6,7-dihydropyrido[3,4-d]pyridazin-4-yl)amino)ethyl)-2-methylbenzonitrile]
  IC50: 57.9 nM

## CCN1CCN(c2nnc(N[C@H](C)c3cccc(C#N)c3C)c3cn(N4CC5CCCC5C4)c(=O)cc23)CC1 (stereo partly drawn) [Example 153, 3-((1R)-1-((6-(hexahydrocyclopenta[c]pyrrol-2(1H)-yl)-1-(4-ethylpiperazin-1-yl)-7-oxo-6,7-dihydropyrido[3,4-d]pyridazin-4-yl)amino)ethyl)-2-methylbenzonitrile]
  IC50: 4.6 nM

## C[C@@H](Nc1nnc(-n2cccn2)c2cc(=O)n(C3CC3)cc12)c1cccc(C(F)F)c1F [Example 30, (R)-6-cyclopropyl-4-((1-(3-(difluoromethyl)-2-fluorophenyl)ethyl)amino)-1-(1H-pyrazol-1-yl) pyrido[3,4-d]pyridazin-7(6H)-one]
  IC50: 33.5 nM

## C[C@@H](Nc1nnc(N2CC3(CC(O)C3)C2)c2cc(=O)n(C3(C)CC3)cc12)c1cccc(C(F)F)c1F [Example 196, (R)-4-((1-(3-(difluoromethyl)-2-fluorophenyl)ethyl)amino)-1-(6-hydroxy-2-azaspiro[3.3]heptan-2-yl)-6-(1-methylcyclopropyl) pyrido[3,4-d]pyridazin-7(6H)-one]
  IC50: 3.7 nM

## C[C@@H](Nc1nnc(N2CC(F)(F)C2)c2cc(=O)n(C3(C)CC3)cc12)c1cccc(C(F)F)c1F [Example 22, (R)-1-(3,3-difluoroazetidin-1-yl)-4-((1-(3-(difluoromethyl)-2-fluorophenyl)ethyl)amino)-6-(1-methylcyclopropyl) pyrido[3,4-d]pyridazin-7(6H)-one]
  IC50: 16.4 nM

## Cc1c([C@@H](C)Nc2nnc(N3CCN(C)CC3)c3cc(=O)n(C4(C)CC4)cc23)cccc1S(=O)(=O)C(F)F [Example 209, (R)-4-((1-(3-((difluoromethyl)sulfonyl)-2-methylphenyl)ethyl)amino)-6-(1-methylcyclopropyl)-1-(4-methylpiperazin-1-yl)pyrido[3,4-d]pyridazin-7(6H)-one]
  IC50: 4.4 nM

## Cc1c([C@@H](C)Nc2nnc(N3CC4CC4C3)c3cc(=O)n(C4(C)CC4)cc23)cccc1C(F)(F)F (stereo partly drawn) [Example 62, 1-(3-azabicyclo[3.1.0]hexan-3-yl)-4-(((R)-1-(2-methyl-3-(trifluoromethyl)phenyl)ethyl)amino)-6-(1-methylcyclopropyl) pyrido[3,4-d]pyridazin-7(6H)-one]
  IC50: 9.4 nM

## Cc1c(C(F)F)cccc1[C@@H](C)Nc1nnc(N2CCN(C3CC3)CC2)c2cc(=O)n(C3CC3)cc12 [Example 212, (R)-6-cyclopropyl-1-(4-cyclopropylpiperazin-1-yl)-4-((1-(3-(difluoromethyl)-2-methylphenyl)ethyl)amino)pyrido[3,4-d]pyridazin-7(6H)-one]
  IC50: 11.9 nM

## Cc1c([C@@H](C)Nc2nnc(N3CCN(C(C)(C)C)CC3)c3cc(=O)n(C4(C)CC4)cc23)cccc1C(F)(F)F [Example 95, (R)-1-(4-(tert-butyl)piperazin-1-yl)-4-((1-(2-methyl-3-(trifluoromethyl)phenyl)ethyl)amino)-6-(1-methylcyclopropyl) pyrido[3,4-d]pyridazin-7(6H)-one]
  IC50: 6.8 nM

## Cc1c(C#N)cccc1[C@@H](C)Nc1nnc(N2CCN(C)[C@H](C)C2)c2cc(=O)n(N3CC4CCCC4C3)cc12 (stereo partly drawn) [Example 167, 3-((1R)-1-((1-((R)-3,4-dimethylpiperazin-1-yl)-6-(hexahydrocyclopenta[c]pyrrol-2(1H)-yl)-7-oxo-6,7-dihydropyrido[3,4-d]pyridazin-4-yl)amino)ethyl)-2-methylbenzonitrile]
  IC50: 6.3 nM

## C[C@@H](Nc1nnc(N2CCN(C3CC3)CC2)c2cc(=O)n(C3(C)CC3)cc12)c1cccc(C(F)(F)F)c1F [Example 170, (R)-4-((1-(2-fluoro-3-(trifluoromethyl)phenyl)ethyl)amino)-1-(4-cyclopropylpiperazin-1-yl)-6-(1-methylcyclopropyl) pyrido[3,4-d]pyridazin-7(6H)-one]
  IC50: 6.7 nM

## C[C@@H](Nc1nnc(N2CCN(CC3CC3)CC2)c2cc(=O)n(C3CC(F)(F)C3)cc12)c1cccc(C(F)F)c1F [Example 107, (R)-6-(3,3-difluorocyclobutyl)-4-((1-(3-(difluoromethyl)-2-fluorophenyl)ethyl)amino)-1-(4-(cyclopropylmethyl)piperazin-1-yl)pyrido[3,4-d]pyridazin-7(6H)-one]
  IC50: 4.2 nM

## C[C@@H](Nc1nnc(N2CCC(F)(F)CC2)c2cc(=O)n(C3CC3)cc12)c1cccc(C(F)F)c1F [Example 19, (R)-6-cyclopropyl-4-((1-(3-(difluoromethyl)-2-fluorophenyl)ethyl)amino)-1-(4,4-difluoropiperidin-1-yl)pyrido[3,4-d]pyridazin-7(6H)-one]
  IC50: 27.2 nM

## CC(C)N1CCN(c2nnc(N[C@H](C)c3cccc(C(F)F)c3F)c3cn(N4CC5CCCC5C4)c(=O)cc23)CC1 (stereo partly drawn) [Example 149, 4-(((R)-1-(3-(difluoromethyl)-2-fluorophenyl)ethyl)amino)-6-(hexahydrocyclopenta[c]pyrrol-2(1H)-yl)-1-(4-isopropylpiperazin-1-yl)pyrido[3,4-d]pyridazin-7(6H)-one]
  IC50: 8.6 nM

## C[C@@H](Nc1nnc(-n2ccnc2)c2cc(=O)n(C3CC3)cc12)c1cccc(C(F)F)c1F [Example 31, (R)-6-cyclopropyl-4-((1-(3-(difluoromethyl)-2-fluorophenyl)ethyl)amino)-1-(1H-imidazol-1-yl)pyrido[3,4-d]pyridazin-7(6H)-one]
  IC50: 19.5 nM

## Cc1c(C#N)cccc1[C@@H](C)Nc1nnc(N2CCN(C)CC2)c2cc(=O)n(C3CC3)cc12 [Example 87, (R)-3-(1-((6-cyclopropyl-1-(4-methylpiperazin-1-yl)-7-oxo-6,7-dihydropyrido[3,4-d]pyridazin-4-yl)amino)ethyl)-2-methylbenzonitrile]
  IC50: 5.7 nM

## C[C@@H](Nc1nnc(NC(C2CC2)C2CC2)c2cc(=O)n(C3(C)CC3)cc12)c1cccc(C(F)F)c1F [Example 129, (R)-1-((dicyclopropylmethyl)amino)-4-((1-(3-(difluoromethyl)-2-fluorophenyl)ethyl)amino)-6-(1-methylcyclopropyl) pyrido[3,4-d]pyridazin-7(6H)-one]
  IC50: 6.1 nM
